From patent publication US9980943B2, “Methods of treating muscular dystrophy” (BOARD OF REGENTS OF THE NEVADA SYSTEM OF HIGHER EDUCATION, …, priority 2013, dated 2018)

How the values were obtained:
Type in all cases: cell-based, mouse
[1] = tested on: α7 integrin (LacZ reporter in α7+/LacZ myotubes); assay: Myotube α7 integrin FDG assay (Burkin assay in myotubes, 96-well); settings: myotubes
[2] = tested on: β-galactosidase in CMV-LacZ C2C12 myoblasts; assay: CMV-LacZ secondary screen in C2C12 myoblasts (β-Gal stabilizing assay); settings: CMV-LacZ C2C12 myoblasts
Procedure, shortened: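 Dose-response runs at 0.5–40 μM (0.5, 1, 5, 10, 20, 40 μM; N=2 per point) used a clonal C2C12 line carrying CMV-LacZ. Cells were assayed as myoblasts or as differentiated myotubes, and β-galactosidase levels were read with the FDG fluorogenic substrate.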

[3] = tested on: α7 integrin (LacZ reporter in α7βgal+/− myoblasts); assay: Myoblast α7+/LacZ integrin FDG assay (Burkin assay in myoblasts, 96-well); settings: α7+/LacZ myoblasts, 96-well
[4] = tested on: β-galactosidase in CMV-LacZ C2C12 myotubes; assay: CMV-LacZ secondary screen in C2C12 myotubes (β-Gal stabilizing assay); settings: C2C12 CMV-LacZ myotubes, fold relative to DMSO
Procedure, shortened: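 β-Gal level was the read-out, measured in a clonal C2C12 line expressing LacZ from a CMV promoter. Dose-response curves used six concentrations, 0.5 μM up to 40 μM, with duplicate points.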

Row | SMILES | Burkin Assay in Myotubes, α7 integrin LacZ reporter signal relative to DMSO ([1]; 0.5 uM) | Burkin Assay in Myotubes, α7 integrin LacZ reporter signal relative to DMSO ([1]; 1 uM) | Burkin Assay in Myotubes, α7 integrin LacZ reporter signal relative to DMSO ([1]; 5 uM) | Burkin Assay in Myotubes, α7 integrin LacZ reporter signal relative to DMSO ([1]; 10 uM) | Burkin Assay in Myotubes, α7 integrin LacZ reporter signal relative to DMSO ([1]; 20 uM) | Burkin Assay in Myotubes, α7 integrin LacZ reporter signal relative to DMSO ([1]; 40 uM) | CMV-LACZ in Myoblasts (β-galactosidase activity relative to DMSO) ([2]; 0.5 uM) | CMV-LACZ in Myoblasts (β-galactosidase activity relative to DMSO) ([2]; 1 uM) | CMV-LACZ in Myoblasts (β-galactosidase activity relative to DMSO) ([2]; 5 uM) | CMV-LACZ in Myoblasts (β-galactosidase activity relative to DMSO) ([2]; 10 uM) | CMV-LACZ in Myoblasts (β-galactosidase activity relative to DMSO) ([2]; 20 uM) | CMV-LACZ in Myoblasts (β-galactosidase activity relative to DMSO) ([2]; 40 uM) | Burkin Assay in Myoblasts, signal relative to DMSO ([3]; 0.5 uM) | Burkin Assay in Myoblasts, signal relative to DMSO ([3]; 1 uM) | Burkin Assay in Myoblasts, signal relative to DMSO ([3]; 5 uM) | Burkin Assay in Myoblasts, signal relative to DMSO ([3]; 10 uM) | Burkin Assay in Myoblasts, signal relative to DMSO ([3]; 20 uM) | Burkin Assay in Myoblasts, signal relative to DMSO ([3]; 40 uM) | CMV-LACZ in Myotubes, signal relative to DMSO ([4]; 0.5 uM) | CMV-LACZ in Myotubes, signal relative to DMSO ([4]; 1 uM) | further results
1 | Cc1cccc(Cn2cnc3c(nnn3Cc3ccc(Cl)cc3)c2=O)c1 [MLS000092785-01] | 1.027 | 0.9662 | 1.02 | 0.8586 | 0.8293 | 0.8225 | 0.8600 | 1.1653 | 0.9882 | 0.7351 | 1.1004 | 0.3235 | 0.9544 | 1.035 | 1.1703 | 0.9343 | 0.7833 | 0.6509 | 0.9105 | 1.0143 | CMV-LACZ in Myotubes, signal relative to DMSO ([4]; 5 uM): 1.0185; CMV-LACZ in Myotubes, signal relative to DMSO ([4]; 10 uM): 1.0738; CMV-LACZ in Myotubes, signal relative to DMSO ([4]; 20 uM): 1.0400; CMV-LACZ in Myotubes, signal relative to DMSO ([4]; 40 uM): 1.0500
2 | N#Cc1ccc(Sc2nc3ccccc3[nH]2)cc1C#N [MLS000110418-01] | 1.073 | 1.0975 | 1.017 | 0.943 | 0.9939 | 0.8855 | 0.8871 | 0.9989 | 1.0913 | 0.9455 | 0.8926 | 0.7141 | 1.3095 | 1.079 | 1.249 | 1.12 | 1.004 | 0.8889 | 1.0333 | 0.9000 | CMV-LACZ in Myotubes, signal relative to DMSO ([4]; 5 uM): 0.9617; CMV-LACZ in Myotubes, signal relative to DMSO ([4]; 10 uM): 0.9599; CMV-LACZ in Myotubes, signal relative to DMSO ([4]; 20 uM): 1.0459; CMV-LACZ in Myotubes, signal relative to DMSO ([4]; 40 uM): 1.3647
3 | CCCS(=O)(=O)c1nc(S(=O)(=O)c2ccc(C)cc2)c(N2CCCC2)s1 [MLS000113985-01] | 0.9882 | 1.037 | 0.9919 | 0.9925 | 0.7655 | 0.6679 | 0.9809 | 1.0049 | 1.0836 | 0.9187 | 0.2126 | 0.1841 | 1.065 | 1.018 | 0.7898 | 0.4804 | 0.1779 | 0.122 | 1.0629 | 1.0638 | CMV-LACZ in Myotubes, signal relative to DMSO ([4]; 5 uM): 1.0031; CMV-LACZ in Myotubes, signal relative to DMSO ([4]; 10 uM): 1.0241; CMV-LACZ in Myotubes, signal relative to DMSO ([4]; 20 uM): 1.0541; CMV-LACZ in Myotubes, signal relative to DMSO ([4]; 40 uM): 1.0482
